Molecular target: hERG potassium channel (Homo sapiens (Human), UniProt Q12809)
Test: Assay on inhibiting hERG potassium channel (automatic patch clamp, CHO-hERG cells)
Assay type: cell-based
Conditions: Qpatch, max test concentration 40 μM
Description: Experimental purpose: Using automatic patch clamp method to detect the effect of the sample to be tested on hERG potassium channel.
4.1.1 CHO-hERG cells were cultured in 175 cm^2 flasks. When the cell density was increased to 60-80%, the culture solution was removed and the resultant was washed with 7 mL PBS (Phosphate Buffered Saline phosphate buffer), then 3 mL of digestive juice was added to digest.
4.1.2 After the digestion finished, 7 mL culture solution was added to neutralize. Then centrifuge, aspirate the supernatant, and then resuspend by adding 5 mL culture solution to ensure a cell density of 2-5×10^6/mL.
Single cell high impedance sealing and whole cell pattern formation were all done automatically by the Qpatch instrument. After the whole-cell recording mode was obtained, the cells were clamped at −80 mV. 50-Millisecond−50 mV preamplifier was applied prior to a 5 second+40 mV depolarization stimulus. Then the voltage was repolarized to −50 mV for 5 seconds and back to −80 mV. This voltage stimulation was applied every 15 seconds, and the extracellular fluid was recorded over 5 minutes after 2 minutes' record, and then the administration process was started. The compound concentration was started from the lowest test concentration, and each test concentration was given for 2.5 minutes. Test at least 3 cells (n≥3) for each concentration.
4.4.1 Dilute 20 mM mother liquor of the compound with extracellular fluid 5 μL of 20 mM mother liquor of the compound was added to 2495 μL extracellular fluid, and the mixture was 500-fold diluted to 40 μM. Then 0.2% DMSO in extracellular fluid was 3-fold diluted sequentially to obtain the final concentration to be tested.
4.4.2 The max test concentration was 40 μM, 6 concentrations were 40, 13.33, 4.44, 1.48, 0.49, and 0.16 μM respectively.
Experimental data was analyzed by XLFit software.

Sequence of hERG potassium channel (Q12809 whole entry): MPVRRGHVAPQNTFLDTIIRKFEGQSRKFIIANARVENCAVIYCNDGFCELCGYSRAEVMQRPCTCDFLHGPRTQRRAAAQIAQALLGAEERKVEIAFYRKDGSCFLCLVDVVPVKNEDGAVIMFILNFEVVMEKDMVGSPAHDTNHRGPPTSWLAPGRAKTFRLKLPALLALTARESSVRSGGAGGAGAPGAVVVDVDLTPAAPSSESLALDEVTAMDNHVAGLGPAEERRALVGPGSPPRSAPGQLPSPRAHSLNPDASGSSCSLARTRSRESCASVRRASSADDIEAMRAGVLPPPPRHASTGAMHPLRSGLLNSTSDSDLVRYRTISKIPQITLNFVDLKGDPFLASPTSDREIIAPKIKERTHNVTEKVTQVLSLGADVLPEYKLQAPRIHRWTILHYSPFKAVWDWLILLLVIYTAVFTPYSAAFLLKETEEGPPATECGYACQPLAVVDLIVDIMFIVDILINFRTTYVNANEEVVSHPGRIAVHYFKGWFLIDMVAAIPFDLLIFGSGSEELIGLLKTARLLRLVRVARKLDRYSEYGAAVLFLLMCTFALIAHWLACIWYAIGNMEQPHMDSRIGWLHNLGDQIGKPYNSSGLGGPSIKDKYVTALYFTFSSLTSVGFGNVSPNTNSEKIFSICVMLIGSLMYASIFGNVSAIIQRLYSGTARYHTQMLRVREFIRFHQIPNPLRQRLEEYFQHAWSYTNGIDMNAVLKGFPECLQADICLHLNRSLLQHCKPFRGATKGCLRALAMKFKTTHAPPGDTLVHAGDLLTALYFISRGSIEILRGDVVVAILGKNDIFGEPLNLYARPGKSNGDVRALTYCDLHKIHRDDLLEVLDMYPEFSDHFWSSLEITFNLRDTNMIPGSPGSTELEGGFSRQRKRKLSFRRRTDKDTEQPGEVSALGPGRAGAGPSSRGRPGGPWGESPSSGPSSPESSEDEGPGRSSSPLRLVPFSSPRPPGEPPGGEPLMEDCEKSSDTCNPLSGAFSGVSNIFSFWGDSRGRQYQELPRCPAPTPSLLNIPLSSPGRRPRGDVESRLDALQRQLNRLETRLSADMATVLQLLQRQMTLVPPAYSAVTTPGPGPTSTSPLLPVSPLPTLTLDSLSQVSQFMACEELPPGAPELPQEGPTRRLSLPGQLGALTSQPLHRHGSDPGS

| Structure (SMILES) | IC50 [µM] |
| --- | --- |
| N[C@H]1CC[C@H](c2nc(C3(CN[C@@H]4C[C@H]4c4ccccc4)CC3)no2)CC1 [Example 144] | > 40 |
| N[C@H]1CC[C@@H](c2nc(C3(CN[C@@H]4C[C@H]4c4ccccc4)CC3)no2)CC1 [Example 145] | > 40 |
| N[C@H]1CC[C@H](c2cc(C3(CN[C@@H]4C[C@H]4c4ccccc4)CC3)no2)CC1 [Example 241] | > 40 |
